Experimental data reported in the supplement of paper PMC10307832.

Columns and labels:
Assay in all cases: relative viability (nuclei count vs DMSO), 5 days (fraction); higher = more cells survive
201T = system: 201T
Procedure, shortened: (§1)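 One day after seeding in 1536-well plates, lung cancer cell lines were dosed by pin tool. Dosing was either single-drug or a fixed anchor-drug dose plus five library-drug doses (not always all listed) in √10 steps. After 5 days, nuclei were stained in one fix-and-stain step and counted on 4× images, and relative viability is the nuclei count of treated wells over that of vehicle wells, given as the median of duplicate plates.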

ABC-1 = system: ABC-1
Procedure, shortened: as §1

BEN = system: BEN
Procedure, shortened: as §1

CAL-12T = system: CAL-12T
Procedure, shortened: as §1

COR-L 105 = system: COR-L 105
Procedure, shortened: as §1

EKVX = system: EKVX
Procedure, shortened: as §1

HARA = system: HARA
Procedure, shortened: as §1

HCC-366 = system: HCC-366
Procedure, shortened: as §1

LOU-NH91 = system: LOU-NH91
Procedure, shortened: as §1

NCI-H1437 = system: NCI-H1437
Procedure, shortened: as §1

NCI-H1650 = system: NCI-H1650
Procedure, shortened: as §1

NCI-H1666 = system: NCI-H1666
Procedure, shortened: as §1

NCI-H2009 = system: NCI-H2009
Procedure, shortened: as §1

NCI-H3122 = system: NCI-H3122
Procedure, shortened: as §1

NCI-H441 = system: NCI-H441
Procedure, shortened: as §1

NCI-H460 = system: NCI-H460
Procedure, shortened: as §1

NCI-H661 = system: NCI-H661
Procedure, shortened: as §1

NCI-H727 = system: NCI-H727
Procedure, shortened: as §1

PC-14 = system: PC-14
Procedure, shortened: as §1

With O=c1cc(-c2cccc3c2Sc2ccccc2S3)oc(N2CCOCC2)c1 + CC(C)C[C@H](NC(=O)[C@H](Cc1ccccc1)NC(=O)c1cnccn1)B(O)O [Bortezomib] (partner 0.002 µM) as the compound, how does the relative viability (201T; first compound 0.08 µM) read?
The relative viability was 1.07.

What about the relative viability (201T; first compound 0.253 µM) of the same compound?
Its relative viability is 1.15.

What about the relative viability (201T; first compound 0.8 µM) of the same compound?
The relative viability was 1.15.

And the relative viability (201T; first compound 2.53 µM)?
Its relative viability is 1.02.

What about the relative viability (201T; first compound 8 µM) of the same compound?
Its relative viability is 1.08.

What about the relative viability (ABC-1; first compound 0.08 µM) of the same compound?
The relative viability was 0.364.

What about the relative viability (ABC-1; first compound 0.253 µM) of the same compound?
The relative viability was 0.312.

And the relative viability (ABC-1; first compound 0.8 µM)?
Its relative viability is 0.249.

And the relative viability (ABC-1; first compound 2.53 µM)?
Its relative viability is 0.333.

And the relative viability (ABC-1; first compound 8 µM)?
Its relative viability is 0.323.

What about the relative viability (BEN; first compound 0.08 µM) of the same compound?
Its relative viability is 0.802.

And the relative viability (BEN; first compound 0.253 µM)?
Its relative viability is 0.858.

And the relative viability (BEN; first compound 0.8 µM)?
The relative viability was 0.991.

And the relative viability (BEN; first compound 2.53 µM)?
Its relative viability is 0.889.

What about the relative viability (BEN; first compound 8 µM) of the same compound?
Its relative viability is 1.23.

And the relative viability (CAL-12T; first compound 0.08 µM)?
The relative viability was 0.716.

And the relative viability (CAL-12T; first compound 0.253 µM)?
Its relative viability is 0.945.

What about the relative viability (CAL-12T; first compound 0.8 µM) of the same compound?
The relative viability was 1.02.

And the relative viability (CAL-12T; first compound 2.53 µM)?
Its relative viability is 0.98.

And the relative viability (CAL-12T; first compound 8 µM)?
Its relative viability is 1.05.

What about the relative viability (COR-L 105; first compound 0.08 µM) of the same compound?
Its relative viability is 0.669.

What about the relative viability (COR-L 105; first compound 0.253 µM) of the same compound?
Its relative viability is 0.715.

And the relative viability (COR-L 105; first compound 0.8 µM)?
The relative viability was 0.741.

What about the relative viability (COR-L 105; first compound 2.53 µM) of the same compound?
Its relative viability is 0.795.

What about the relative viability (COR-L 105; first compound 8 µM) of the same compound?
Its relative viability is 0.733.

What about the relative viability (EKVX; first compound 0.08 µM) of the same compound?
Its relative viability is 0.977.

And the relative viability (EKVX; first compound 0.253 µM)?
Its relative viability is 1.11.

What about the relative viability (EKVX; first compound 0.8 µM) of the same compound?
Its relative viability is 1.1.

And the relative viability (EKVX; first compound 2.53 µM)?
The relative viability was 1.06.

What about the relative viability (EKVX; first compound 8 µM) of the same compound?
The relative viability was 1.1.

And the relative viability (HARA; first compound 0.08 µM)?
The relative viability was 1.09.

And the relative viability (HARA; first compound 0.253 µM)?
The relative viability was 1.37.

What about the relative viability (HARA; first compound 0.8 µM) of the same compound?
The relative viability was 0.926.

What about the relative viability (HARA; first compound 2.53 µM) of the same compound?
The relative viability was 0.921.

And the relative viability (HARA; first compound 8 µM)?
The relative viability was 1.24.

What about the relative viability (HCC-366; first compound 0.08 µM) of the same compound?
The relative viability was 1.09.

And the relative viability (HCC-366; first compound 0.253 µM)?
Its relative viability is 1.65.

What about the relative viability (HCC-366; first compound 0.8 µM) of the same compound?
Its relative viability is 1.12.

And the relative viability (HCC-366; first compound 2.53 µM)?
Its relative viability is 1.03.

What about the relative viability (HCC-366; first compound 8 µM) of the same compound?
The relative viability was 1.28.

What about the relative viability (LOU-NH91; first compound 0.08 µM) of the same compound?
The relative viability was 0.481.

What about the relative viability (LOU-NH91; first compound 0.253 µM) of the same compound?
Its relative viability is 0.514.

What about the relative viability (LOU-NH91; first compound 0.8 µM) of the same compound?
The relative viability was 0.546.

What about the relative viability (LOU-NH91; first compound 2.53 µM) of the same compound?
Its relative viability is 0.489.

What about the relative viability (LOU-NH91; first compound 8 µM) of the same compound?
The relative viability was 0.502.

What about the relative viability (NCI-H1437; first compound 0.08 µM) of the same compound?
The relative viability was 0.51.

And the relative viability (NCI-H1437; first compound 0.253 µM)?
Its relative viability is 0.626.

And the relative viability (NCI-H1437; first compound 0.8 µM)?
Its relative viability is 0.473.

And the relative viability (NCI-H1437; first compound 2.53 µM)?
Its relative viability is 0.555.

And the relative viability (NCI-H1437; first compound 8 µM)?
The relative viability was 0.543.

And the relative viability (NCI-H1650; first compound 0.08 µM)?
Its relative viability is 0.212.

And the relative viability (NCI-H1650; first compound 0.253 µM)?
The relative viability was 0.168.

What about the relative viability (NCI-H1650; first compound 0.8 µM) of the same compound?
Its relative viability is 0.189.

What about the relative viability (NCI-H1650; first compound 2.53 µM) of the same compound?
The relative viability was 0.16.

What about the relative viability (NCI-H1650; first compound 8 µM) of the same compound?
Its relative viability is 0.184.

What about the relative viability (NCI-H1666; first compound 0.08 µM) of the same compound?
The relative viability was 0.666.

And the relative viability (NCI-H1666; first compound 0.253 µM)?
The relative viability was 0.887.

What about the relative viability (NCI-H1666; first compound 0.8 µM) of the same compound?
The relative viability was 0.559.

And the relative viability (NCI-H1666; first compound 2.53 µM)?
The relative viability was 0.793.

What about the relative viability (NCI-H1666; first compound 8 µM) of the same compound?
Its relative viability is 0.759.

What about the relative viability (NCI-H2009; first compound 0.08 µM) of the same compound?
Its relative viability is 0.936.

What about the relative viability (NCI-H2009; first compound 0.253 µM) of the same compound?
The relative viability was 1.1.

And the relative viability (NCI-H2009; first compound 0.8 µM)?
Its relative viability is 0.952.

What about the relative viability (NCI-H2009; first compound 2.53 µM) of the same compound?
Its relative viability is 0.871.

And the relative viability (NCI-H2009; first compound 8 µM)?
Its relative viability is 0.795.

And the relative viability (NCI-H3122; first compound 0.08 µM)?
The relative viability was 1.05.

What about the relative viability (NCI-H3122; first compound 0.253 µM) of the same compound?
The relative viability was 1.15.

What about the relative viability (NCI-H3122; first compound 0.8 µM) of the same compound?
The relative viability was 1.08.

What about the relative viability (NCI-H3122; first compound 2.53 µM) of the same compound?
Its relative viability is 1.

What about the relative viability (NCI-H3122; first compound 8 µM) of the same compound?
Its relative viability is 1.12.

And the relative viability (NCI-H441; first compound 0.08 µM)?
Its relative viability is 0.488.

What about the relative viability (NCI-H441; first compound 0.253 µM) of the same compound?
Its relative viability is 1.25.

What about the relative viability (NCI-H441; first compound 0.8 µM) of the same compound?
Its relative viability is 0.98.

What about the relative viability (NCI-H441; first compound 2.53 µM) of the same compound?
The relative viability was 0.45.

What about the relative viability (NCI-H441; first compound 8 µM) of the same compound?
The relative viability was 0.594.

What about the relative viability (NCI-H460; first compound 0.08 µM) of the same compound?
Its relative viability is 1.36.

What about the relative viability (NCI-H460; first compound 0.8 µM) of the same compound?
The relative viability was 1.12.

And the relative viability (NCI-H460; first compound 2.53 µM)?
The relative viability was 1.02.

What about the relative viability (NCI-H460; first compound 8 µM) of the same compound?
The relative viability was 1.87.

What about the relative viability (NCI-H661; first compound 0.08 µM) of the same compound?
Its relative viability is 0.808.

What about the relative viability (NCI-H661; first compound 0.253 µM) of the same compound?
The relative viability was 0.935.

And the relative viability (NCI-H661; first compound 0.8 µM)?
Its relative viability is 0.837.

What about the relative viability (NCI-H661; first compound 2.53 µM) of the same compound?
Its relative viability is 0.798.

What about the relative viability (NCI-H661; first compound 8 µM) of the same compound?
Its relative viability is 0.912.

What about the relative viability (NCI-H727; first compound 0.253 µM) of the same compound?
Its relative viability is 1.1.

What about the relative viability (NCI-H727; first compound 2.53 µM) of the same compound?
The relative viability was 0.66.

What about the relative viability (NCI-H727; first compound 8 µM) of the same compound?
The relative viability was 0.972.

What about the relative viability (PC-14; first compound 0.08 µM) of the same compound?
The relative viability was 1.08.

And the relative viability (PC-14; first compound 0.253 µM)?
The relative viability was 1.01.

And the relative viability (PC-14; first compound 0.8 µM)?
Its relative viability is 0.962.

And the relative viability (PC-14; first compound 2.53 µM)?
Its relative viability is 0.866.

What about the relative viability (PC-14; first compound 8 µM) of the same compound?
The relative viability was 0.882.
